Measurements reported in ChEMBL document CHEMBL4033707, “Discovery of a novel aminopyrazine series as selective PI3Kα inhibitors” (Bioorg Med Chem Lett, 2017).
In brackets after ≈: the same amount, converted by molar mass. Blank lines part the entries; values can stand above or below the compound they belong to. Activity calls are given as the source filed them. The calls are words filed in the database; no cut-off is given here.

Assays:
[1] = Inhibition of PI3Kalpha mutant in human BT474 cells assessed as reduction in AKT phosphorylation at Thr308; format: cell-based; conditions: BT-474
[2] = Aqueous solubility of the compound in phosphate buffer at pH 7.4; format: physicochemical
[3] = Apparent permeability of the compound across apical side to basolateral side in human Caco2 cells; format: ADME, cell-based; conditions: Caco-2
[4] = Octanol-buffer partition coefficient, log D of the compound at pH 7.4 by shake-flask method; format: physicochemical
[5] = molecular target: Phosphatidylinositol 4,5-bisphosphate 3-kinase catalytic subunit alpha isoform (Homo sapiens, UniProt P42336); assay: Inhibition of PI3Kalpha (unknown origin)
[6] = Dissociation constant, pKa of the compound; format: physicochemical
[7] = Volume of distribution in Han Wistar rat at 4 umol/kg, iv or 10 umol/kg, po; format: ADME, organism-based; conditions: in vivo
[8] = Clearance in Han Wistar rat at 4 umol/kg, iv or 10 umol/kg, po; format: ADME, organism-based; conditions: in vivo
[9] = molecular target: T1, Phosphatidylinositol 4,5-bisphosphate 3-kinase catalytic subunit beta isoform (Homo sapiens, UniProt P42338); assay: Inhibition of PI3Kbeta in PTEN-deficient human MDA-MB-468 cells assessed as reduction in AKT phosphorylation at Ser473
[10] = molecular target: T1, Phosphatidylinositol 4,5-bisphosphate 3-kinase catalytic subunit beta isoform; assay: Inhibition of PI3Kbeta (unknown origin)
[11] = Oral bioavailability in Han Wistar rat at 10 umol/kg; format: ADME, organism-based; conditions: in vivo
MCF7 [12] = assay: Anti-tumor activity against human MCF7 cells harboring PI3KCA E545K mutant xenografted in Swiss nu/nu mouse assessed as tumor growth inhibition at 10 mg/kg, po administered twice daily for 21 days measured post last dose relative to control; format: functional; conditions: 504 h, read-out: TGI
[13] = molecular target: T2, Phosphatidylinositol 4,5-bisphosphate 3-kinase catalytic subunit gamma isoform (Homo sapiens, UniProt P48736); assay: Inhibition of human PI3Kgamma (2 to 1102 residues) at 50 uM by ADP Glo HTS assay
[14] = molecular target: Diacylglycerol kinase beta (Homo sapiens) (UniProt Q9Y6T7); assay: Inhibition of human DGKbeta (1 to 804 residues) at 50 uM by ADP Glo HTS assay
[15] = molecular target: Diacylglycerol kinase zeta (Homo sapiens) (UniProt Q13574); assay: Inhibition of human DGKzeta (1 to 929 residues) at 50 uM by ADP Glo HTS assay
[16] = molecular target: Choline/ethanolamine kinase (Homo sapiens) (UniProt Q9Y259); assay: Inhibition of human CHKbeta (1 to 395 residues) at 50 uM by ADP Glo HTS assay
[17] = Clearance in Beagle dog at 1 umol/kg, po; format: ADME, Canis lupus familiaris; conditions: in vivo
[18] = Aqueous solubility of the compound in phosphate buffer at pH 7.4 using crystalline sample; format: physicochemical
[19] = molecular target: Sphingosine kinase 2 (Homo sapiens) (UniProt Q9NRA0); assay: Inhibition of human SPHK 2 (1 to 654 residues) at 50 uM by ADP Glo HTS assay
[20] = molecular target: T2, Phosphatidylinositol 4,5-bisphosphate 3-kinase catalytic subunit gamma isoform; assay: Inhibition of PI3Kgamma (unknown origin)
[21] = molecular target: Phosphatidylinositol 3-kinase regulatory subunit alpha (Homo sapiens) (UniProt P27986); assay: Inhibition of human PI3K p85alpha (1 to 724 residues) at 50 uM by ADP Glo HTS assay
[22] = test system: Phosphatidylinositol 4,5-bisphosphate 3-kinase catalytic subunit alpha isoform (Homo sapiens), P42336 [E545K]; assay: Inhibition of human PI3Kalpha (2 to 1068 residues)/p85 (1 to 724 residues) E545K mutant at 50 uM by ADP Glo HTS assay
[23] = Oral bioavailability in Beagle dog at 1 umol/kg; format: ADME, organism-based, Canis lupus familiaris; conditions: in vivo
[24] = test system: Phosphatidylinositol 4,5-bisphosphate 3-kinase catalytic subunit alpha isoform (Homo sapiens), P42336 [E542K]; assay: Inhibition of human PI3Kalpha (2 to 1068 residues)/p85 (1 to 724 residues) E542K mutant at 50 uM by ADP Glo HTS assay
MCF7 [25] = assay: Anti-tumor activity against human MCF7 cells harboring PI3KCA E545K mutant xenografted in Swiss nu/nu mouse assessed as tumor growth inhibition at 25 mg/kg, po administered twice daily for 21 days measured post last dose relative to control; format: functional; conditions: 504 h, read-out: TGI
[26] = Cmax in mouse at 100 mg/kg, po; format: ADME, organism-based; set-up: dose 100 mg/kg, route oral; conditions: in vivo
Canis familiaris = assay: Volume of distribution in Beagle dog at 1 umol/kg, po; format: ADME, Canis lupus familiaris; conditions: in vivo
[27] = molecular target: Serine/threonine-protein kinase mTOR (Homo sapiens, UniProt P42345); assay: Inhibition of m-TOR (unknown origin)
MCF7 [28] = assay: Anti-tumor activity against human MCF7 cells harboring PI3KCA E545K mutant xenografted in Swiss nu/nu mouse assessed as tumor growth inhibition at 50 mg/kg, po administered twice daily for 21 days measured post last dose relative to control; format: functional; conditions: 504 h, read-out: TGI
[29] = molecular target: Phosphatidylinositol 4-kinase beta (Homo sapiens, UniProt Q9UBF8); assay: Inhibition of human PI4KB (1 to 801 residues) by ADP Glo HTS assay
[30] = molecular target: Choline kinase alpha (Homo sapiens) (UniProt P35790); assay: Inhibition of human CHKalpha (1 to 457 residues) at 50 uM by ADP Glo HTS assay
[31] = molecular target: Phosphatidylinositol 3-kinase regulatory subunit beta (Homo sapiens) (UniProt O00459); assay: Inhibition of human PI3K p85beta (1 to 724 residues) at 50 uM by ADP Glo HTS assay
[32] = molecular target: Phosphatidylinositol 4,5-bisphosphate 3-kinase catalytic subunit delta isoform (Homo sapiens, UniProt O00329); assay: Inhibition of PI3Kdelta (unknown origin)
[33] = molecular target: Phosphoinositide 3-kinase regulatory subunit 4 (Homo sapiens, UniProt Q99570); assay: Inhibition of VPS15 (unknown origin)
[34] = molecular target: Diacylglycerol kinase gamma (Homo sapiens) (UniProt P49619); assay: Inhibition of human DGKgamma (1 to 752 residues) at 50 uM by ADP Glo HTS assay
[35] = molecular target: Sphingosine kinase 1 (Homo sapiens) (UniProt Q9NYA1); assay: Inhibition of human SphK1 (1 to 384 residues) at 50 uM by […] HTS assay
[36] = AUC in mouse at 100 mg/kg, po; format: ADME, organism-based; conditions: in vivo

T1 sequence (P42338 whole entry, canonical isoform): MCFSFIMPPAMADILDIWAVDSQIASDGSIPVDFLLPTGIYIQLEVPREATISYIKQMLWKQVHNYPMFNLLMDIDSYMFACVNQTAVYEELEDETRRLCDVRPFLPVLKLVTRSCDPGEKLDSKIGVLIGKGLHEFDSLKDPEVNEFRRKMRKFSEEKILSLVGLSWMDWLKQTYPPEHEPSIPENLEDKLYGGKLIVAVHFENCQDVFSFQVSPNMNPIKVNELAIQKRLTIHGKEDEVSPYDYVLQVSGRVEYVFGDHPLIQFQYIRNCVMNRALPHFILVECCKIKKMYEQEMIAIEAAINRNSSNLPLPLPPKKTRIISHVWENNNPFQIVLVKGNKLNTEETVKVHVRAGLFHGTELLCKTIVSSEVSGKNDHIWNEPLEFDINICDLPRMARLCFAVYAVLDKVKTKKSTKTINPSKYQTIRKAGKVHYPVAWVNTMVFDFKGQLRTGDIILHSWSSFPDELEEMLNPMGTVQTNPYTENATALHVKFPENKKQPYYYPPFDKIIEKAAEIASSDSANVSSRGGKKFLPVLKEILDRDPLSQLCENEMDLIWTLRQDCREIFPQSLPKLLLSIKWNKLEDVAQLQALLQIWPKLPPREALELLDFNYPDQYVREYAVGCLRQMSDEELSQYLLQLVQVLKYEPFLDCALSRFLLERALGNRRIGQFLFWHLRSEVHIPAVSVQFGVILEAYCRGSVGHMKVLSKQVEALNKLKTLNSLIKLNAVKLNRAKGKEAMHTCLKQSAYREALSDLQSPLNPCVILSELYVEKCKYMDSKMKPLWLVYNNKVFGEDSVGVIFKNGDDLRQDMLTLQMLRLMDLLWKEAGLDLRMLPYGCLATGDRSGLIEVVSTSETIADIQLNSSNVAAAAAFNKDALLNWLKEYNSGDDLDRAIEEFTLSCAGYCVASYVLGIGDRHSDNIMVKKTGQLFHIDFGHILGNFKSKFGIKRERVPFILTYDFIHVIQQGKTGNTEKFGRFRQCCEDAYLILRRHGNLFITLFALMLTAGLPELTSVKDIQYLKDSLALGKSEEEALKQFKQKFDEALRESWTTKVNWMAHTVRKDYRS
Chain of Phosphatidylinositol 4,5-bisphosphate 3-kinase catalytic subunit alpha isoform (P42336 whole entry, canonical isoform): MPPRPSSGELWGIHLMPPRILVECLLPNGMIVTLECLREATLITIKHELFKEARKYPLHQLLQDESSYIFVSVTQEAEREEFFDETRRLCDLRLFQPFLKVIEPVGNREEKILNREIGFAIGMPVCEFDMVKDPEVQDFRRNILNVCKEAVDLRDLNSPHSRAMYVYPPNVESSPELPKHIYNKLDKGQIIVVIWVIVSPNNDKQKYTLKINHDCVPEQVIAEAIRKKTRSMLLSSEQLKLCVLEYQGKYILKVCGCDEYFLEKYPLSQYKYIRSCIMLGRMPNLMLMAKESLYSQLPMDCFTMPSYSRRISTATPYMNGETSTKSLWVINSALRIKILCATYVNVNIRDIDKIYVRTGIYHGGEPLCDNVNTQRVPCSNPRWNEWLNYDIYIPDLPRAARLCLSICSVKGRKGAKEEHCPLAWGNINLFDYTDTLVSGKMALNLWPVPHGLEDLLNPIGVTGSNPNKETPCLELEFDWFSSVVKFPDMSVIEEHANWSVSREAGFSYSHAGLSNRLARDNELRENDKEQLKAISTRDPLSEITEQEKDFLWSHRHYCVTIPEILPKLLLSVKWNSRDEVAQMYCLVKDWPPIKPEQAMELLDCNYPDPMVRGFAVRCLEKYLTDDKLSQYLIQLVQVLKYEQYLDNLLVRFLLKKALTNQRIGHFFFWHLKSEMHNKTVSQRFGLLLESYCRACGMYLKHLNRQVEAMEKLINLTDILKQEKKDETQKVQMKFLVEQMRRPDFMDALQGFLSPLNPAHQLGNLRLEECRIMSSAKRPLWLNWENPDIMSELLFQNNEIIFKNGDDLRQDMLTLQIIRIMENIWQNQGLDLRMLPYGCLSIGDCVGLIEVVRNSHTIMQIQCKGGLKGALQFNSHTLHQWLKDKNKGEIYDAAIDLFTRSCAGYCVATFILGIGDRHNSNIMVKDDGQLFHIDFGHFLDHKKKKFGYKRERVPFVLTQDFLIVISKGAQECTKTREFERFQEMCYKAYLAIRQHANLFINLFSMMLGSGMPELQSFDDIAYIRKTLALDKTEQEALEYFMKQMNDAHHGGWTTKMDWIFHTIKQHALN
Chain of Diacylglycerol kinase gamma (Homo sapiens) (P49619 whole entry, the tested form may be a part): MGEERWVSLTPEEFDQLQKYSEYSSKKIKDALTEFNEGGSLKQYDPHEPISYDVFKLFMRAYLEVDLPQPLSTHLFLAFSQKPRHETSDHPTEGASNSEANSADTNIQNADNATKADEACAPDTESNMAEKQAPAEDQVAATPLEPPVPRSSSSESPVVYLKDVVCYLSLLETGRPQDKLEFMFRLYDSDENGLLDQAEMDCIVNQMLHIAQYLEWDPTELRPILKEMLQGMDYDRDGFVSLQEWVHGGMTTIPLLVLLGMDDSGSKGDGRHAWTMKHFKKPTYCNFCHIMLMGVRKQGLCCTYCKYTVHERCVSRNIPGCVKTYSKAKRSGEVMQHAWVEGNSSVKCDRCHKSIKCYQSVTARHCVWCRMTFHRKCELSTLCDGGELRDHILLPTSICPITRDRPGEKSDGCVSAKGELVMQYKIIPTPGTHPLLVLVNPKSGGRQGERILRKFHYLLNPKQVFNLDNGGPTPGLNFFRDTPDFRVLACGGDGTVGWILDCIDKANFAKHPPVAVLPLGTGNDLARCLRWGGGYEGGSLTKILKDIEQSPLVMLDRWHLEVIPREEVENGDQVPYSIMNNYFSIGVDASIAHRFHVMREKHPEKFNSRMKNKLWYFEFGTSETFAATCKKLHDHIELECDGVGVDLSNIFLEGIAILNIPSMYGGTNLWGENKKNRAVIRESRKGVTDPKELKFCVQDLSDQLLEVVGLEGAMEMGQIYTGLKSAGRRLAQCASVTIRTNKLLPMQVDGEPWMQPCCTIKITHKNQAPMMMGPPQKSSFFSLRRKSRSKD
Chain of Phosphatidylinositol 4,5-bisphosphate 3-kinase catalytic subunit alpha isoform (Homo sapiens), P42336 [E545K] (P42336 whole entry E545K, the tested form may be a part, canonical isoform): as the sequence (P42336 whole entry, canonical isoform) above, with E545K counted along it
Chain of Choline/ethanolamine kinase (Homo sapiens) (Q9Y259 whole entry, the tested form may be a part): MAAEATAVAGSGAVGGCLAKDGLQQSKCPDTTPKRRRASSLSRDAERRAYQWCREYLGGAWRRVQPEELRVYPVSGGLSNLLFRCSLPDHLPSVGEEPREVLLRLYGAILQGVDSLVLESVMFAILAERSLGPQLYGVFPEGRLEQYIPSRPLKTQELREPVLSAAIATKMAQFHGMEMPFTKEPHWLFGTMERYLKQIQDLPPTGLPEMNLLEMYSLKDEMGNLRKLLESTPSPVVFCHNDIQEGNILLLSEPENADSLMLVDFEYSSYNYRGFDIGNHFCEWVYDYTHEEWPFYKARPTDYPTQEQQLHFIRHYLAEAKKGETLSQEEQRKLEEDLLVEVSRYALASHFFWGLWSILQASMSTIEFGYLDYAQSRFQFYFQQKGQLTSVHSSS
Chain of Sphingosine kinase 1 (Homo sapiens) (Q9NYA1 whole entry, the tested form may be a part): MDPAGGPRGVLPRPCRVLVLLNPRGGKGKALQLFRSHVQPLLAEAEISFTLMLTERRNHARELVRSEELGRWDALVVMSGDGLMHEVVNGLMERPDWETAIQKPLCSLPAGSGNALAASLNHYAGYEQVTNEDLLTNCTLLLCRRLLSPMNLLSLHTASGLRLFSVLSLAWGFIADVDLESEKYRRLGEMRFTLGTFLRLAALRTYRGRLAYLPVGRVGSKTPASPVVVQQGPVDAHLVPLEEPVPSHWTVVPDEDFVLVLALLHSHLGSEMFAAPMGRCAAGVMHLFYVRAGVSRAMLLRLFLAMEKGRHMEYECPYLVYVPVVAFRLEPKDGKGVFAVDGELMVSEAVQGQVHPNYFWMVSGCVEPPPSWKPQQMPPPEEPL

Structure (SMILES): CN(C)CC(=O)N1CCC(n2cc(-c3cnc(N)c(-n4nnc5ccccc54)n3)cn2)CC1
IC50 [1]: 58 nM

Structure (SMILES): Cc1nc(N)c(-c2nc(C(=O)NCCN(C)C)nn2C)nc1-c1cnn2ccccc12
IC50 [1]: 6 nM
IC50 [9]: 1500 nM

Structure (SMILES): Cc1nc(N)c(-c2cnn(C3CCN(C)CC3)n2)nc1-c1cnc2ccccn12
IC50 [5]: 8 nM
IC50 [1]: 100 nM
IC50 [9]: 550 nM
IC50 [10]: 76 nM

Structure (SMILES): CNC(=O)c1nc(-c2nc(-c3cnc4ccccn34)cnc2N)n(C)n1
IC50 [5]: 20 nM
IC50 [1]: 380 nM
IC50 [9]: 21000 nM
IC50 [10]: 1300 nM

Now from value to compound, other results behind:

solubility [2]: 7 µM (≈ 2.54 µg/mL)
Papp A→B [3]: 36 ×10⁻⁶ cm/s
logD [4]: 2.3
IC50 [5]: < 10 nM
pKa [6]: 2.3
Vd [7]: 0.8 L/kg
clearance [8]: 27 mL/min/kg
IC50 [1]: 24 nM
IC50 [9]: 1500 nM
IC50 [10]: 24 to 180 nM
bioavailability [11]: 9%
Structure (SMILES): CNC(=O)c1nc(-c2nc(-c3cnn4ccccc34)c(C)nc2N)n(C)n1

inhibition [13]: inactive
inhibition [14]: inactive
inhibition [15]: inactive
inhibition [16]: inactive
CL/F [17]: 19 mL/min/kg
Papp A→B [3]: 6 ×10⁻⁶ cm/s
solubility thermodynamic [18]: 26 µM (≈ 9.45 µg/mL)
logD [4]: 1.8
inhibition [19]: inactive
IC50 [20]: 43 nM
inhibition [21]: inactive
inhibition [22]: inactive
bioavailability [23]: 60%
inhibition [24]: inactive
IC50 [5]: 6 nM
Cmax [26]: 18 µM
Vd (Canis familiaris): 0.8 L/kg
pKa [6]: 6.2
IC50 [27]: 29000 nM
Vd [7]: 0.9 L/kg
clearance [8]: 11 mL/min/kg
IC50 [1]: 87 nM
IC50 [29]: 2800 nM
inhibition [30]: inactive
IC50 [9]: 8400 nM
inhibition [31]: inactive
IC50 [10]: 87 to 540 nM
IC50 [32]: 16 nM
IC50 [33]: 16000 nM
inhibition [34]: inactive
inhibition [35]: inactive
AUC [36]: 36.2 µM·h
bioavailability [11]: 46%
Structure (SMILES): CNC(=O)c1nc(-c2nc(-c3cnc4ccccn34)c(C)nc2N)n(C)n1
inhibition in vivo at 10 mg/kg (MCF7 [12]): 29%
inhibition in vivo at 25 mg/kg (MCF7 [25]): 44%
inhibition in vivo at 50 mg/kg (MCF7 [28]): 86%

IC50 [5]: 5 nM
IC50 [1]: 49 nM
IC50 [9]: 200 nM
IC50 [10]: 32 nM
Structure (SMILES): Cc1nc(N)c(-c2nc(C3CCN(C)CC3)nn2C)nc1-c1cnc2ccccn12

IC50 [1]: 22 nM
IC50 [9]: 16000 nM
Structure (SMILES): CO[C@H]1CC[C@H](NC(=O)c2nc(-c3nc(-c4cnc5ccccn45)c(C)nc3N)n(C)n2)CC1
